Paper PMC11420065 (Molecular Psychiatry, 2024)

Tests used:
human 5-HT2AR [1] = target: T1, human 5-HT2AR (Homo sapiens, UniProt P28223); assay: EMTA ebBRET biosensor, agonist mode, β-arrestin recruitment; conditions: baseline vs maximal response, words
Procedure: (§1) For recruitment of the β-arrestins, cells were transfected with the receptor, β-arrestin1-RlucII or β-arrestin2-RlucII, GRK2 and rGFP-CAAX.
(§2) For in vitro experiments, curves fitting was conducted using GraphPad Prism 9 (version 9.0.0). Concentration response curves were obtained using a three-parameter logistic nonlinear regression model and the results are expressed as mean ± SEM of at least three independent experiments. […] Ligand-promoted BRET (ΔBRET) was determined by subtracting the BRET ratio of the vehicle condition from the BRET ratio of the ligand-treated conditions.

[2] = tested on: D-myo-inositol 1 monophosphate (IP1); assay: IP1 levels in frontal cortex of treated mice (IP-One HTRF); conditions: 1 h
Procedure: C57BL/6 wild-type males, sourced from JAX farms, 11 weeks of age at the time of experiment, were housed in groups of up to five littermates with food and water ad libitum in a vivarium with a 12 h light/dark cycle at 23 °C. Animals were allowed to get accustomed to the vivarium at least 1 week prior to the experiment. […] All efforts were made to minimize animal suffering and the number of animals used.
Briefly, frontal cortices were harvested and homogenized in a 10 µL per 1 mg of tissue solution consisting of 10% IP-One Gq Kit Lysis and Detection Buffer in Stimulation Buffer. The clarified homogenates (17,000 × g for 15 min) were plated in duplicate by sequential addition of 2 µL to a 18 µL mix of detection reagents in Lysis and Detection Buffer.
The mice used in the studies came from the same colony and were split randomly between the experimental groups. The investigators were blinded to group allocation during compounds administration to mice. Data are presented as mean ± SEM of 5 mice for each treated group.
Data are normalized in fold of IP1 production in vehicle-treated mice (n = 5 animals per treatment condition; one-way ANOVA followed by Dunnett’s post hoc: compared to vehicle at 1h: *p < 0.1 and **p < 0.01 compared to vehicle).

human 5-HT2AR [3] = target: T1, human 5-HT2AR; assay: EMTA ebBRET biosensor, agonist mode, Gαi/o/z family (Rap1GAP-RlucII/rGFP-CAAX); conditions: for Emax (%) ± SEM: normalized as % response of 5-HT, NA: no activity
Procedure: as §1, §2

human 5-HT2AR [4] = target: T1, human 5-HT2AR
Procedure: as §1, §2

human 5-HT2AR [5] = target: T1, human 5-HT2AR; assay: EMTA ebBRET biosensor, agonist mode, Gαq family (p63-RlucII/rGFP-CAAX); conditions: normalized as % response of 5-HT, NA: no activity
Procedure: as §1, §2

T1 sequence (P28223 whole entry): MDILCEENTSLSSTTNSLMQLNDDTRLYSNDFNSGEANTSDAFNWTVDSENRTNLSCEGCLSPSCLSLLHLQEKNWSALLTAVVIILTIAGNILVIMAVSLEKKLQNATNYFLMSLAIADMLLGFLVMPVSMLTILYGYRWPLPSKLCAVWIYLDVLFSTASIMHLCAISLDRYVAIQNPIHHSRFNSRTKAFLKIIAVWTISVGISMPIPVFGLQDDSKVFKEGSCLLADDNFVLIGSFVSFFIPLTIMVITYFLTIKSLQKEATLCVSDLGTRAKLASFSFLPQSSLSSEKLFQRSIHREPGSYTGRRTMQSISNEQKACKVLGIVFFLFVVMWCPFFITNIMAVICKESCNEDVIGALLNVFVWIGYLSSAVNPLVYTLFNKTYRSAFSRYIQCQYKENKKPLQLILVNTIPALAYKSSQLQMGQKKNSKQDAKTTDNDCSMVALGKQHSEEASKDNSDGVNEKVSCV

| SMILES | recruitment of β-arrestin1 (human 5-HT2AR [1]) | increase in IP1 levels compared to the vehicle condition ([2]; 2 mg/Kg i.p.) [%] | activation at Gαi1 and Gαz (human 5-HT2AR [3]) | % inhibition ± SEM (human 5-HT2AR [4]) [%] | Emax (%) ± SEM (human 5-HT2AR [5]; Gα11) [%] | Emax (%) ± SEM (human 5-HT2AR [5]; Gα14) [%] | Emax (%) ± SEM (human 5-HT2AR [5]; Gα15) [%] | Emax (%) ± SEM (human 5-HT2AR [5]; Gαq) [%] | Emax (%) ± SEM (human 5-HT2AR [3]; Gαi1) [%] | Emax (%) ± SEM (human 5-HT2AR [3]; Gαi2) [%] | Emax (%) ± SEM (human 5-HT2AR [3]; Gαi3) [%] | Emax (%) ± SEM (human 5-HT2AR [3]; GαoA) [%] | Emax (%) ± SEM (human 5-HT2AR [3]; GαoB) [%] | Emax (%) ± SEM (human 5-HT2AR [3]; Gαz) [%] | activation at the Gαi/o/z family (human 5-HT2AR [3]; agonist mode, baseline vs maximal response, words) | reduction in IP1 ([2]; 3 mg/Kg i.p., vs vehicle) [%] |
| --- | --- | --- | --- | --- | --- | --- | --- | --- | --- | --- | --- | --- | --- | --- | --- | --- |
| O=C1CCc2ccc(OCCCCN3CCN(c4cccc(Cl)c4Cl)CC3)cc2N1 [Aripiprazole, aripiprazole] | very weak yet statistically significant recruitment | 10.5 ± 1.6 | very weak yet statistically significant activation | – | – | – | – | – | – | – | – | – | – | – | – | – |
| CN(C)C(=O)N[C@H]1CC[C@H](CCN2CCN(c3cccc(Cl)c3Cl)CC2)CC1 [Cariprazine, cariprazine] | did not | – | – | > 50 | 70.72 ± 4.97 | 68.10 ± 3.05 | 13.93 ± 0.53 | 67.99 ± 4.29 | 12.72 ± 3.42 | 11.72 ± 2.50 | 16.05 ± 2.57 | 11.59 ± 2.44 | 4.32 ± 2.16 | 9.02 ± 0.88 | did not show statistically significant activation | – |
| Cc1nc2n(c(=O)c1CCN1CCC(c3noc4cc(F)ccc34)CC1)CCCC2 [Risperidone, risperidone] | – | – | – | – | – | – | – | – | – | – | – | – | – | – | – | 9.2 ± 1.2 |
